Experiment [1] has as its target T1, DNA-PK (Homo sapiens, UniProt P78527). Briefly: DNA-PK inhibition assay (radiometric 33P-ATP kinase assay). The format is biochemical. The note with it: competitive tight-binding fit. On the procedure:
Compounds were screened for their ability to inhibit DNA-PK kinase using a standard radiometric assay. Briefly, in this kinase assay the transfer of the terminal ^33P-phosphate in ^33P-ATP to a peptide substrate is interrogated. The assay was carried out in 384-well plates to a final volume of 50 μL per well containing approximately 6 nM DNA-PK, 50 mM HEPES (pH 7.5), 10 mM MgCl2, 25 mM NaCl, 0.01% BSA, 1 mM DTT, 10 μg/mL sheared double-stranded DNA (obtained from Sigma), 0.8 mg/mL DNA-PK peptide (Glu-Pro-Pro-Leu-Ser-Gln-Glu-Ala-Phe-Ala-Asp-Leu-Trp-Lys-Lys-Lys, obtained from American Peptide), and 100 μM ATP. Accordingly, compounds of the invention were dissolved in DMSO to make 10 mM initial stock solutions. Serial dilutions in DMSO were then made to obtain the final solutions for the assay. A 0.75 μL aliquot of DMSO or inhibitor in DMSO was added to each well, followed by the addition of ATP substrate solution containing ^33P-ATP (obtained from Perkin Elmer). The reaction was started by the addition of DNA-PK, peptide and ds-DNA. After 45 min, the reaction was quenched with 25 μL of 5% phosphoric acid. The reaction mixture was transferred to MultiScreen HTS 384-well PH plates (obtained from Millipore), allowed to bind for one hour, and washed three times with 1% phosphoric acid. Following the addition of 50 μL of Ultima Gold™ high efficiency scintillant (obtained from Perkin Elmer), the samples were counted in a Packard TopCount NXT Microplate Scintillation and Luminescence Counter (Packard BioScience). The Ki values were calculated using Microsoft Excel Solver macros to fit the data to the kinetic model for competitive tight-binding inhibition. In Tables 1 and 2 below, Ki of less than 0.001 micromolar for the inhibition of DNA-PK is indicated as “A”; Ki of equal to or greater than 0.001 micromolar and less than 0.01 micromolar for the inhibition of DNA-PK as “B”; Ki of equal to or greater than 0.01 micromolar and less than 0.1 micromolar for the inhibition of DNA-PK as “C”; Ki of equal to or greater than 0.1 micromolar and less than 1 micromolar for the inhibition of DNA-PK for “D”; and Ki of equal to or greater than 1 micromolar as “E.”

The target in experiment [2] is T1, DNA-PK. Briefly: DNA-PK cellular assay (pDNA-PK Ser2056 sandwich ELISA, NCS-induced DSBs). Set-up: endogenous in cells; host or cells: A549 (human NSCLC). Type of experiment: cell-based. The note with it: pDNA-PK (Ser2056) in A549 cells, NCS 50 ng/ml, 15 minutes. The text has this: DNA-PK is recruited to and activated by double-strand breaks (DSB) in DNA and plays a critical role in the non-homologous end-joining (NHEJ) repair mechanism. Upon activation, DNA-PK undergoes rapid autophosphorylation at Ser2056. The measure of pDNA-PK (Ser2056) in response to DNA DSBs provides a cellular signaling assay to evaluate potential DNA-PK kinase inhibitors.
Neocarzinostatin (NCS) was used as a radiomimetic to induce DNA DSBs. The sandwich ELISA used the Meso Scale Discovery electrochemiluminescence technology platform which typically provides greater sensitivity than traditional ELISA formats.
A549 (human NSCLC) cells are plated at 25,000 cells/well in 100 uL of DMEM (Invitrogen cat #11995-040) supplemented with 1% Pen/Strep (Invitrogen cat #15070-063) and 10% FBS (Hyclone cat #SH30071.03HI) on black clear bottom 96 well plates (Costar #3904) and allowed to adhere overnight at 37° C. in 5% CO2. The following day, the compounds and NCS solutions are prepared by adding 100 ul of DMEM growth media per well in a Corning polypropylene V-bottom deep well plate (cat #3357). The HP Compound Dilution D300 instrument was used to add compounds to the appropriate wells using the setting logarithmic and 16-point titration singlet.
The DMEM NCS solution was prepared by adding NCS to DMEM media at 200 ng/ml (final assay concentration, 50 ng/ml). 100 ul of the DMEM/NCS solution is added to the wells with the compounds. 100 ul of this solution is then immediately added to the A549 cells. The cells are then incubated for 15 minutes at 37° C.
The complete lysis buffer is prepared by adding 1% Phosphatase inhibitor (Sigma cat #P2850) and 1% Protease Inhibitor (Sigma cat #P8340) to the Lanthascreen cellular assay lysis buffer (Invitrogen cat #PV5598). The media from the plate was removed by flicking and patting dry. 60 uL/well of the complete lysis buffer is added to each well. These plates are then incubated for at least 5 minutes in the lysis buffer at room temperature to ensure complete lysis. At this point the lysates can be transferred to prepared ELISA plates.
The prepared ELISA plates were prepared blocking the Mesoscale Goat-Anti-Mouse (GAM) plates with 150 uL/well of 3% Blocker A (Mesoscale cat #R93-BA) for one hour at room temperature with shaking. The capture antibody is prepared by diluting the mouse monoclonal anti-total DNA-PK (AbCAM cat #ab1832) to 3 ug/mL in 1% Blocker A. The blocked plates rinsed once with 200 uL D-PBS. The capture antibody (25 ul/well) was added to each well and allowed to incubate for an hour at room temperature while shaking. This was rinsed once with 200 ul D-PBS before adding 25 uL of the prepared cell lysate from the cell plates to the Mesoscale GAM ELISA plate. The lysate is then incubated on the plates for one hour at room temperature with shaking. The detection antibody (Epitomics rabbit anti-pS2056-DNA-PK) is prepared at a 1/1000 dilution (to a final concentration of 450 ng/mL) in 1% Blocker A. The GAM plates are washed once with 200 uL of D-PBS and then 25 uL/well of the detection antibody is added to the plate. This incubates for one hour at room temperature with shaking. The Sulfotag is prepared by adding Sulfo-Tag Goat-Anti-Rabbit antibody (Mesoscale cat #R32AB-1) at a 1/500 dilution (1 ug/mL) to 1% Blocker A. The GAM plates are washed with 200 uL of D-PBS and then 25 uL of the Sulfotag preparation is added to each well. Once the plates have been incubated with the final solution, the Sulfotag, for 1 hour, they are washed once with 200 uL of D-PBS. The 1× Read Buffer (Mesoscale cat #R32-TC) is made by diluting the 4× buffer in ddH20. 150 uL of 1× buffer is added to each well of the GAM plate and then the plate is read on the Sector Imager 2400. The readout (electrochemiluminescence) was plotted against the concentration of each compound and the IC50s were generated using Prism software (GraphPad Prism version 6.0e for Macintosh). […]
A general note: An ELISA detects its analyte on a solid surface through an enzyme-linked reagent.

Molecules are shown by their SMILES. Where only a bound is given, the exact number is not on record here.

The term Ki denotes a dissociation constant, usually derived from enzyme kinetics or from competition with a known ligand. What is called IC50 is the concentration that inhibits the measured activity by half.

`Cc1nccc(N[C@H]2CC[C@@H](Oc3cc(N4CCOCC4)cc4nc(C)ncc34)CC2)n1` [Compound 12, 2-methyl-N-[4-(2-methyl-7-morpholino-quinazolin-5-yl)oxycyclohexyl]-pyrimidin-4-amine] registered a Ki on DNA-PK [1] (Table 1, 100 μM ATP) of 0.001 to 0.01 µM. Moreover, the IC50 against DNA-PK [2] (Table 1) is 100 to 1000 nM.
The like results for `CNC(=O)c1ccnc(N[C@H]2CC[C@@H](Oc3cc(N4CCOCC4)cc4ncnc(C)c34)CC2)n1` [Compound 13, N-methyl-2-[[4-(4-methyl-7-morpholino-quinazolin-5-yl)oxycyclohexyl]amino]pyrimidine-4-carboxamide] were, in that order, under 0.001 µM and under 100 nM.
The corresponding values for `CN1CCN(c2cc(N[C@H]3CC[C@@H](Oc4cc(N5CCOCC5)cc5ncncc45)CC3)ncn2)CC1` [Compound 14, 6-(4-methylpiperazin-1-yl)-N-[4-(7-morpholinoquinazolin-5-yl)oxycyclohexyl]pyrimidin-4-amine] are under 0.001 µM and under 100 nM.
Compound `O=C(N[C@H]1CC[C@@H](Oc2cc(N3CCOCC3)cc3ncncc23)CC1)c1ccncn1` [Compound 15, N-[4-(7-morpholinoquinazolin-5-yl)oxycyclohexyl]pyrimidine-4-carboxamide] displayed a Ki on DNA-PK [1] (Table 1, 100 μM ATP) of under 0.001 µM. On DNA-PK [2] (Table 1), this compound showed an IC50 of under 100 nM.
The corresponding values for `O=C(N[C@H]1CC[C@@H](Oc2cc(N3CCOCC3)cc3ncncc23)CC1)C1CC1` [Compound 16, N-[4-(7-morpholinoquinazolin-5-yl)oxycyclohexyl]cyclopropanecarboxamide] are under 0.001 µM and under 100 nM.
The corresponding values for `c1ncc2c(O[C@H]3CC[C@@H](Nc4ncnc5ccoc45)CC3)cc(N3CCOCC3)cc2n1` [Compound 17, N-[4-(7-morpholinoquinazolin-5-yl)oxycyclohexyl]furo[3,2-d]pyrimidin-4-amine] are under 0.001 µM and under 100 nM.
Turning to `CN1CCN(c2nccc(N[C@H]3CC[C@@H](Oc4cc(N5CCOCC5)cc5ncncc45)CC3)n2)CC1` [Compound 18, 2-(4-methylpiperazin-1-yl)-N-[4-(7-morpholinoquinazolin-5-yl)oxycyclohexyl]pyrimidin-4-amine], on DNA-PK [1] (Table 1, 100 μM ATP), the Ki was under 0.001 µM. This compound also showed an IC50 on DNA-PK [2] (Table 1) of under 100 nM.
Turning to `CNC(=O)c1ccnc(N[C@H]2CC[C@@H](Oc3cc(N4CCOCC4)cc4nc(C)ncc34)CC2)n1` [Compound 19], on DNA-PK [1] (Table 1, 100 μM ATP), the Ki was 0.001 to 0.01 µM. Also, the IC50 against DNA-PK [2] (Table 1) was under 100 nM.
For the compound `COCC(=O)N[C@H]1CC[C@@H](Oc2cc(N3CCOCC3)cc3ncncc23)CC1` [Compound 20, 2-methoxy-N-((1s,4s)-4-((7-morpholinoquinazolin-5-yl)oxy)cyclohexyl)acetamide], the Ki at DNA-PK [1] (Table 1, 100 μM ATP) lay within 0.001 to 0.01 µM. Also, at DNA-PK [2] (Table 1), the IC50 is at least 1000 nM.
The like results for `CCOC(=O)N[C@H]1CC[C@@H](Oc2cc(N3CCOCC3)cc3ncncc23)CC1` [Compound 22, ethyl ((1s,4s)-4-((7-morpholinoquinazolin-5-yl)oxy)cyclohexyl)carbamate] were, in that order, under 0.001 µM and under 100 nM.
The corresponding values for `CC1(C(=O)N[C@H]2CC[C@@H](Oc3cc(N4CCOCC4)cc4ncncc34)CC2)CC1` [Compound 23, 1-methyl-N-((1s,4s)-4-((7-morpholinoquinazolin-5-yl)oxy)cyclohexyl)cyclopropane-1-carboxamide] are under 0.001 µM and under 100 nM.
As for `Cn1ccc(N[C@H]2CC[C@@H](Oc3cc(N4CCOCC4)cc4ncncc34)CC2)n1` [Compound 24, 1-methyl-N-((1s,4s)-4-((7-morpholinoquinazolin-5-yl)oxy)cyclohexyl)-1H-pyrazol-3-amine], the Ki on DNA-PK [1] (Table 1, 100 μM ATP) was under 0.001 µM. This compound also yielded an IC50 at DNA-PK [2] (Table 1) of under 100 nM.
In turn, `COc1ccc(COc2cc(N3CCOCC3)cc3nc[nH]c(=O)c23)cc1` [Compound 51, 5-[(4-methoxyphenyl)methoxy]-7-morpholino-3H-quinazolin-4-one] showed a Ki at DNA-PK [1] (Table 2, 100 μM ATP) of 0.1 to 1 µM. The compound further yielded an IC50 on DNA-PK [2] (Table 2) of at least 1000 nM.
The like results for `COc1ccc(COc2cc(N3CCOCC3)cc3ncncc23)cc1` [Compound 52, 4-[5-[(4-methoxyphenyl)methoxy]quinazolin-7-yl]morpholine] were, in that order, 0.001 to 0.01 µM and at least 1000 nM.
With `COc1ccc(COc2cc(N3CCOCC3)cc3ncnc(OC)c23)cc1` [Compound 53, 4-[4-methoxy-5-[(4-methoxyphenyl)methoxy]quinazolin-7-yl]morpholine], the Ki at DNA-PK [1] (Table 2, 100 μM ATP) lay within 0.01 to 0.1 µM. The compound further displayed an IC50 against DNA-PK [2] (Table 2) of at least 1000 nM.
The like results for `COc1ccc(COc2cc(N3CCOCC3)cc3ncnc(C#N)c23)cc1` [Compound 55, 5-[(4-methoxyphenyl)methoxy]-7-morpholino-quinazoline-4-carbonitrile] were, in that order, 0.001 to 0.01 µM and at least 1000 nM.

The record behind these values is US12005127B2, “DNA-PK inhibitors” (VERTEX PHARMACEUTICALS INCORPORATED, priority 2018, dated 2024).
